The values that follow come from the METLIN SMRT retention time set (Domingo-Almenara et al. 2019).

The series in a line: gradient 5% acetonitrile 3 min, to 50% in 2 min, to 85% in 15 min, held 3 min, 100 µL/min. The settings on record: column: Zorbax Extend-C18 2.1 x 50 mm; eluents: water / acetonitrile, 0.1% formic acid. An outline of the steps: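 Each retention time is based on an adduct peak selected computationally and verified by manual inspection. Measurements used HPLC–quadrupole time-of-flight mass spectrometry in positive and negative ionization mode on mixtures of ~100 pure standards. Chromatography ran on a Zorbax Extend-C18 column (2.1 × 50 mm, 1.8 μm) at 100 μL/min with water and acetonitrile, each containing 0.1% formic acid, and dead and dwell volumes of 40 μL and 900 μL.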
`COc1ccc2c(c1)C=C(C(=O)NCCc1ccccc1)C=CO2` yielded an RP-LC retention time of 959 s. The figure for `CCn1c(=O)c2ccn(CC(=O)NCc3ccc(C)cc3)c2n(CC)c1=O` is 706 s; for `CC(=O)N1CCc2ccc(NC(=O)Nc3ccccc3Cl)cc21` it is 755 s.

As for `COc1ccccc1C(=O)Nc1cccc(Cl)c1`, the RP-LC retention time is 964 s. In the case of `Cc1cc2[nH]c(C(=O)Nc3ccc(C)c(F)c3)c(CN3CCOCC3)c2s1` it was 738 s. The figure for `COC(=O)c1cc(OCC(=O)Nc2cccc(OC)c2)c2ccccc2n1` is 779 s; for `CCC(CC)C(=O)N1CCc2[nH]nc(C(=O)NCCCc3ccccc3)c2C1` it is 797 s; for `NS(=O)(=O)c1ccc(CCNC(=O)c2nc(CCS(=O)(=O)c3ccccc3)no2)cc1` it is 692 s.

`COc1ccc(OC)c(S(=O)(=O)Nc2ccc(Br)cc2C)c1`: the RP-LC retention time is 945 s.

`COc1cccc(CNC(=O)N2CCN(Cc3nc4ccccc4o3)CC2)c1` showed an RP-LC retention time of 654 s. As for `COc1cc(NS(=O)(=O)c2ccc(Nc3nc(-c4ccc(C)c(C)c4)cs3)cc2)nc(OC)n1`, the RP-LC retention time turned out to be 1190 s.

The compound `COc1ccc(NS(=O)(=O)c2cc3n(c2)CCCNC3=O)cc1` showed an RP-LC retention time of 615 s.

For the compound `CNC(=O)c1nc(C(=O)NCCc2ccc(OC)c(OC)c2)cs1`, the RP-LC retention time is 623 s. `Cc1ccc(N(C)S(=O)(=O)c2cc(-c3cc(C(F)(F)F)on3)sc2C)cc1` had an RP-LC retention time of 1320 s. In the case of `O=c1[nH]nc(-c2cc(-c3ccccc3)nc3ccccc23)o1` it was 985 s; in that of `O=C(NC1CCCCC1)C1CCN(c2cnn(Cc3ccccc3)c(=O)c2)CC1`, 793 s; in that of `CCCn1cc(CCNS(=O)(=O)c2cccc3nsnc23)c2cccnc21`, 791 s. As for `O=C(Cn1nc(S(=O)(=O)c2cccc(F)c2)ccc1=O)N1CCN(c2ccccc2F)CC1`, the RP-LC retention time was 885 s. Compound `O=C1c2ccccc2C(=O)c2nc(-c3ccccc3)c(-c3ccccc3)nc21` came in with an RP-LC retention time of 1030 s.

In turn, `CCN1CCN(c2nc(F)c3c(c2F)S(=O)(=O)CCN3CC2CCCO2)CC1` (stereo not given) returned an RP-LC retention time of 596 s. With `COCCN(Cc1ccncc1)C(=O)c1ccc2nsnc2c1`, the RP-LC retention time was found to be 544 s.

`CC(=O)Nc1ccc(S(=O)(=O)N2CCN(c3cnn4c(C)nnc4c3)CC2)cc1` showed an RP-LC retention time of 593 s. The figure for `N#Cc1cccc(S(=O)(=O)N2CCC(c3cc(N)on3)CC2)c1` is 743 s; for `COc1cc(OC)cc(-c2noc(-c3nn(-c4cccc(F)c4)ccc3=O)n2)c1` it is 881 s. As for `C=CCN1C(=O)COc2ccc(-c3nc(NC(=O)C4CCCCC4)sc3C)cc21`, the RP-LC retention time amounted to 1080 s. Compound `CCc1cccc(C)c1NC(=O)Cn1c(=O)n(-c2ccc(F)cc2)c(=O)c2c1cc(C)n2C` yielded an RP-LC retention time of 850 s. With `Cc1ccccc1NC(=O)N1CCN(c2nc3ccccc3nc2C(F)(F)F)CC1`, the RP-LC retention time amounted to 1070 s. The figure for `Cc1cc(C)n(-c2cc(N3CCCC(C(=O)Nc4nnc(C)s4)C3)ncn2)n1` (stereo not given) is 717 s. `CCn1cnc(S(=O)(=O)N2CCC(C(=O)Nc3ccccc3OC)CC2)c1` returned an RP-LC retention time of 666 s. Take `COc1ccc(-c2noc(Cc3nnc(-c4cccc(F)c4)o3)n2)cc1OC`: the RP-LC retention time was found to be 914 s. The figure for `CC(C)OC(=O)N1CCC(Oc2ncnc3c2cnn3-c2ccc(S(C)(=O)=O)cc2F)CC1` is 1060 s; for `Cc1ccc(CNC(=O)C2(C)Cn3nc(C(=O)NCc4ccccc4C)cc3C(=O)N2C)cc1` (stereo not given) it is 823 s. The figure for `CCC(=O)N1CCc2c(sc3ncnc(N)c23)C1` is 575 s; for `O=C(Nc1ccc(OCc2nnc(-c3ccccc3)o2)cc1)c1n[nH]c2c1CCCC2` it is 886 s. As for `Cc1ccn2c(NC(=O)CCc3ccccc3)c(-c3ccccc3)nc2c1`, the RP-LC retention time was 642 s. In turn, `CCOC(=O)C(=O)Nc1ccc(-c2nc(-c3ccc(C)cc3C)co2)cc1` returned an RP-LC retention time of 1170 s. In the case of `CCCN1C(=O)COc2ccc(-c3noc(CNC(=O)c4ccccc4)n3)cc21` it was 870 s; in that of `CCc1ccc(CNC(=O)CN2C(=O)C3CCCCN3c3ccc(S(=O)(=O)N(C)C)cc32)cc1` (stereo not given), 975 s. With `O=C(NCc1nc2ccccc2n1CC(=O)N1CCCCC1)c1ccco1`, the RP-LC retention time was found to be 614 s. For the compound `CS(=O)(=O)CCNCc1nc(-c2ccc3ncnc(Nc4ccc(OCc5cccc(F)c5)c(Cl)c4)c3c2)cs1`, the RP-LC retention time is 717 s. `CN(C)C(=O)c1ccc2c(c1)N(CC(=O)NCc1cccc(Cl)c1)C(=O)C1CCCCN21` (stereo not given) had an RP-LC retention time of 619 s. Compound `Cc1nc(-c2cccnc2)nc2c1CCC(=O)N2Cc1ccccc1` gave an RP-LC retention time of 766 s. The figure for `CC1(O)CCOC2(CCN(C(=O)C3CCCC3)CC2)C1` (stereo not given) is 662 s; for `CCOc1cccc(C2CC(c3ccc(OC)c(OC)c3)=NC3(CCN(C(C)C)CC3)N2)c1O` (stereo not given) it is 604 s; for `O=S(=O)(Nc1ccc(Cn2cncn2)cc1)c1ccc2c(c1)CCCC2` it is 786 s. In turn, `CCOc1nc2ccccc2nc1N1CCCC(C(=O)Nc2ccc(Br)cc2)C1` (stereo not given) had an RP-LC retention time of 1340 s. `O=C(CCC1CCN(c2cc(NC3CC3)ncn2)CC1)NCc1ccccn1` yielded an RP-LC retention time of 541 s. In turn, `Cc1cccc(N2CCN(c3ncc(C(=O)O)c(C)n3)CC2)c1` had an RP-LC retention time of 945 s. In the case of `O=C(c1cn(-c2ccc(S(=O)(=O)N3CCOCC3)cc2)cn1)N1CCN(c2ncccn2)CC1` it was 666 s. `Cc1oc2c(c1C(=O)Nc1ccccc1Br)C1=NCCN1C=N2`: the RP-LC retention time came to 628 s. The figure for `O=C(NCc1csc(-c2cccs2)n1)C1CCN(C(=O)c2cccc(F)c2)CC1` is 772 s; for `Cn1c(SCC(=O)N2CCC(C(N)=O)CC2)nnc1-c1sc2ncccc2c1N` it is 577 s; for `Cc1ccc(-n2ncc3c(N4CCN(C)CC4)ncnc32)cc1C` it is 648 s. In the case of `COc1ccccc1N1CCN(CCNC(=O)c2c(F)cccc2F)CC1` it was 567 s.

As for `Nc1ccc2c(c1Cl)C(=O)c1ccc(N)c(Cl)c1C2=O`, the RP-LC retention time worked out at 854 s. The figure for `c1ccc(-c2nc(C3CC3)no2)c(OC2CCNC2)c1` (stereo not given) is 588 s; for `COc1cccc(NC(=O)c2cccn2Cc2noc(C)n2)c1` it is 792 s. Consider `Cc1ccccc1Nc1c(-c2cccc(N(C)C)c2)nc2ccc(Br)cn12`, for which the RP-LC retention time was found to be 847 s.

As for `CCN1C(=O)c2cccnc2Sc2cc(CNC(=O)c3ccccc3F)ccc21`, the RP-LC retention time amounted to 702 s. The compound `COc1ccccc1-c1noc(C2CCCN2C(=O)c2ccccc2C)n1` (stereo not given) had an RP-LC retention time of 896 s. The figure for `COc1ccc(C)cc1NC(=O)C1CCN(S(=O)(=O)c2ccc3c(c2)CCCC(=O)N3)CC1` is 816 s; for `COC(=O)c1[nH]c2c(c1C)C(=O)CC(c1ccccc1)C2` (stereo not given) it is 860 s. In the case of `Cn1nc(-c2ccccc2)nc1C1CN(C(=O)NCC2CCCO2)C1` (stereo not given), the RP-LC retention time was determined as 625 s. `Cc1ccccc1CN1C(=O)CN(S(C)(=O)=O)CC1(C)C(=O)NCc1ccccc1` (stereo not given) displayed an RP-LC retention time of 838 s. `CC1CCC(NC(=O)c2nnc(-c3ccc(S(=O)(=O)N4CCOCC4)cc3)o2)CC1` (stereo not given) came in with an RP-LC retention time of 917 s. Regarding `NC(=O)c1ccc2c(c1)S(=O)(=O)c1ccccc1C2=O`, the RP-LC retention time is 727 s. `CCc1ccc(-n2ncc3c(=O)n(Cc4nc(-c5cccc(C)c5)no4)cnc32)cc1` gave an RP-LC retention time of 1210 s. In the case of `O=C(Cn1nc(N2CCCCCC2)c2ccccc2c1=O)Nc1ccc(F)cc1` it was 1090 s.

The compound `CC(C)c1nc(-n2cccc2)sc1C(=O)NCCc1ccccc1` displayed an RP-LC retention time of 1190 s. The figure for `CN1CCCC1c1nc(C2CN(C(=O)c3n[nH]c(=O)c4ccccc34)C2)no1` (stereo not given) is 560 s. The figure for `CCOC(=O)C(NC(=O)C1CCCN1C(=O)OCc1ccccc1)C(=O)OCC` (stereo not given) is 855 s.

On to `CCOC(=O)C1=C(CN(C)Cc2ccccc2)NC(=O)NC1c1ccc(OC)cc1` (stereo not given), for which the RP-LC retention time was determined as 578 s. On to `O=C(NCCc1ccc(Cl)cc1)C(=O)c1ccc[nH]1`, for which the RP-LC retention time is 878 s.

Turning to `COc1cccc(-c2cc3n(n2)CCCN(C(=O)c2ccc(OC)c(OC)c2)C3)c1`, the RP-LC retention time turned out to be 654 s.

For `Cc1ccc(CNC(=O)Cn2c(N3CCOCC3)nc(C)cc2=O)cc1`, the RP-LC retention time was determined as 647 s. Compound `CCc1ccc(C(=O)CC2(O)C(=O)Nc3ccc(C)cc32)cc1` (stereo not given) returned an RP-LC retention time of 804 s. In turn, `O=C(COc1ccc(Br)cc1)Nc1cncc(-c2nc3ccccc3o2)c1` displayed an RP-LC retention time of 1040 s. Turning to `CC1=C(c2ccccc2)S(=O)(=O)N=C1N1CCC(NC(=O)c2ccoc2)CC1`, the RP-LC retention time was found to be 733 s. The compound `CCN(CC)Cc1ccc2c(c1)CN(C(=O)NC1CCCC1)CCO2` yielded an RP-LC retention time of 558 s. In the case of `NC(=O)CNC(=O)c1nc(-c2ccsc2)nc2c1OCCO2` it was 613 s.
